Data on 2 compounds can be found in US6015831A, “Thiophene nitrone compounds” (Centaur Pharmaceuticals, Inc., priority 1999, dated 2000).

In one test the test system is synthetic Aβ(1-42). In words: Inhibition of Aβ beta-pleated sheet formation (thioflavin T fluorescence). It is filed as biochemical. The following applies: test compound 10 μM, ThT 3 μM, PBS pH 6.0, 12 hours; stated as alternative: this 'or' IL-1β release, tested in at least one test. An excerpt:
The deposition of amyloid β-peptide (Aβ) is associated with the development of Alzheimer's disease. See, for example, G. G. Glenner et al. (1984) Biochem. Biophys. Res. Commun., 120:885-890; and R. E. Tanzi (1989) Ann. Med, 21:91-94. Accordingly, compounds which effectively disrupt the formation of Aβ(1-40) or Aβ(1-42) beta-pleated sheets are potentially useful for preventing and/or reversing such amyloid deposits. Thioflavin T (ThT) is known to rapidly associate with beta-pleated sheets, particularly the aggregated fibrils of synthetic Aβ(1-42). This association gives rise to an excitation maximum at 440 nm and to an emission at 490 nm.
The experiments were performed using a CytoFluor II fluorescence plate reader having the following parameters:
Into each well was aliquoted 95 μl of ThT (3 μM) prepared in PBS (pH 6.0), 2 μL of the compound to be tested (10 μM) prepared with 0.05% of methylcellulose in PBS (pH 6.0), and 3 μL of Aβ(1-42)(3 μg) prepared with dH2 O. The fluorescence measurement began when the Aβ(1-42) was added and continued for a total of 12 hours. The percent inhibition of beta-pleated sheet formation was calculated from the relative fluorescence unit difference between aggregation in the presence and in the absence of the test compounds. Inhibition of Aβ(1-42) beta-pleated sheet formation by at least 30% compared to the controls is considered significant in this test.

Test [1] deals with IL-1β release, THP-1 cells. In words: Reduction of β-amyloid-induced increased release of interleukin-1β in LPS-stimulated THP-1 cells (ELISA). As to conditions: Homo sapiens, test compound 100 μM, LPS 0.5 μg/mL + Aβ(25-35) 5 μM, 48 hours, stated as alternative: this 'or' Aβ(1-42) sheet formation, tested in at least one test, read-out: inhibition of β-amyloid-induced increase release of interleukin-1β compared to the controls. It is filed as cell-based. The method, then: THP-1 cells, a human monocyte cell line from American Type Culture Collection, were grown in RPMI-1640 medium plus 10% fetal bovine serum (FBS, not heat-inactivated) in T-flasks. The medium was changed every two days by spinning down the cells (800 rpm, 5 minutes) and adding the same fresh medium. Alternatively, the cultures were maintained by supplementation with fresh medium. The cultures were maintained at a cell concentration ranging from between 1×10^5 and 1×10^6 cells/mL. Because sera may contain unknown factors which can affect macrophage/monocyte IL-1 production, the FBS was reduced to 5% for 24 hours. The FBS was further reduced to 2% over two days prior to starting each experiment. The cells were collected by centrifugation and resuspended in media containing 2% FBS. Cell numbers were calculated and cells were plated on 24-well plates (3×10^5 cells/0.6 mL/well). Cells were then treated with LPS (0.5 μg/mL) alone or in combination with Aβ peptides (5 μM). […]
1L-1β secretions into medium by LPS-stimulated THP-1 cells, in the presence or absence of amyloid peptides and a test compound, were assayed with a commercially available ELISA kit (R & D Systems). […] Color development was stopped with 2 N sulfuric acid and the optical density of the standard and the test samples was measured at 450 nm. The amount of IL-1β present in the samples were calculated based upon a standard curve. […]
(In general: In an ELISA, binding on a coated surface is turned into a signal by an enzyme label.)

Molecules are shown by their SMILES. Where only a bound is given, the exact number is not on record here.

For orientation: inhibition means the change of the read-out against control, counted positive when it falls. With `COc1ccc(Sc2ccc(C=[N+]([O-])C3CCCCC3)s2)cc1` [Example 2, α-[2-(4-Methoxyphenylthio)-5-thienyl]-N-cyclohexylnitrone], in the test with synthetic Aβ(1-42), the “inhibition of Aβ(1-42) beta-pleated sheet formation compared to the controls” value was “at least 30%”. Further, the inhibition at 100 µM in test [1] is at least 30%.

Turning to `COc1ccc(Sc2ccc(C=[N+]([O-])C(C)(C)C)s2)cc1` [Example 1, α-[2-(4-Methoxyphenylthio)-5-thienyl]-N-tert-butylnitrone], the “inhibition of Aβ(1-42) beta-pleated sheet formation compared to the controls” value with synthetic Aβ(1-42) is given as “at least 30%”. Besides, in test [1], the inhibition at 100 µM is at least 30%.
